1 compound from US20060069038A1, “Irreversible caspase-3 inhibitors as active site probes” (priority 2003, published 2006) can be followed below.

In the assay the target is T1, caspase-3 (Homo sapiens, UniProt P42574).
T1 construct: endogenous in cells; host or cells: Jurkat cells, apoptosis induced with camptothecin
T1 sequence (P42574 29-175 limits assumed): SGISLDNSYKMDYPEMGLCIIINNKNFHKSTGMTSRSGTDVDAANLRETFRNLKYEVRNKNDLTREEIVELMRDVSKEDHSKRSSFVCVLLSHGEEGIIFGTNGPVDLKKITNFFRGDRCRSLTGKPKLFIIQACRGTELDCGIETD
T1 sequence (P42574 176-277 limits assumed): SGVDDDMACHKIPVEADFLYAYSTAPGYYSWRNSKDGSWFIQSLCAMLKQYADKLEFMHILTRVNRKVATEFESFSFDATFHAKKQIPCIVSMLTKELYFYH
Nature of the assay: [125I]-M808 labeling of caspase subunits in apoptotic Jurkat cells with caspase inhibitor. The format is cell-based. The conditions noted are these: increasing inhibitor concentration, FIG. 4. As to the method: Jurkat cells (ATCC # TEB-152) were maintained in RPMI1640 supplemented with 10% FBS, 2 mM L-glutamine and antibiotics (penicillin and streptamycin). Apoptosis was induced on cells (1 million cells/ml) that had been starved for 36 hours in CytoSf4 media (Kemp technologies) by addition of camptothecin (Sigma; 3 μg/ml). NT2 cells (ATCC 3813555) were cultured in DMEM+10% FBS+2 mM L-glutamine and antibiotics. Apoptosis induced with camptothecin (5 μg/ml) in culture media.
The determination of caspase activity by [^125I]-M808 labeling was performed by pre-incubating purified recombinant human caspase-3 with indicated amounts of caspase inhibitor (M791) or vehicle (DMSO), for 1 hour at 25° C. in ICE buffer III (50 mM Hepes-KOH pH 7.0, 0.1% CHAPS, 10% sucrose, 2 mM EDTA), supplemented with 5 mM DTT. [^125I]-M808 was added to a final concentration of 1.25 μM and incubated for 5 min at 25° C. Active caspases in tissue or cell extracts were labeled by incubating 60-80 μg of lysate with [^125I]-M808 for 15 minutes at 25° C. Labeling was stopped by addition of Laemli buffer (2% SDS; 0.35 M O-mercaptoethanol; 50 mM Tris-Cl pH 6.8; 10% glycerol; 0.05% bromophenol blue) and by heating at 95° C. for 5 minutes. Caspase labeling in whole cells was performed as following. NT2 cells were plated in 24-well dishes (50 000 cells/well) in DMEM+10% FBS. […]

The structures appear in SMILES notation.

As for `CCCCCN(C)CC(=O)[C@H](CC(=O)O)NC(=O)[C@H](CC)n1cc(C(C)(C)C)nc(NCc2nonc2C)c1=O` [Example M867, (3S)-3-({(2S)-2-[5-tert-butyl-3-{[(4-methyl-1,2,5-oxadiazol-3-yl)methyl]amino}-2-oxopyrazin-1(2H)-yl]butanoyl}amino)-5-[methyl(pentyl)amino]-4-oxopentanoic acid], the “intensity of [125I]-M808-labeled caspase-3 bands (occupancy)” value was “intensity of the radiolabeled bands decreased as the concentration of M867 increased”.
